Here are results for twelve molecules from ChEMBL document CHEMBL1201862, “PubChem BioAssay data set” (2004).

Some test systems named below: HOP-62; A498; UACC-62; NCI-H522; DU-145; NCI-H23; SW-620; MDA-MB-435; UO-31; K562; EKVX; HCT-116; SK-MEL-28; HT-29; OVCAR-5; SNB-75; TK-10; PC-3; MDA-N.
Assay in all cases: inhibition of tumour cell growth, NCI panel, 48 h

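Cells were grown in 96-well plates and exposed to each compound for 48 hours at five concentrations; endpoints were interpolated linearly between bracketing concentrations, or set to the highest concentration if not reached. GI50 marks 50% less growth.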 Calls of active or inactive are those of the source. Rule as the data show it: active = GI50 up to about 1.1 µM and inactive = higher. Where only a bound is given, the exact number is not on record here.

With `O=c1c(C(c2ccc3ccccc3c2)c2c(O)oc3cc(O)ccc3c2=O)c(O)oc2cc(O)ccc12`, the GI50 in the assay with HOP-62 is > 100 µM (inactive); in the assay on A498, > 100 µM (inactive); in the assay on UACC-62 it was > 100 µM (inactive); with NCI-H522, 50.8 µM (inactive); in the assay on DU-145 it was > 100 µM (inactive); in the assay with NCI-H23, > 100 µM (inactive). The GI50 in the assay on SW-620 is > 100 µM (inactive); with MDA-MB-435, 46 µM (inactive); in the assay with UO-31, 5.22 µM (inactive); with K562, 30.5 µM (inactive); in the assay on EKVX, > 100 µM (inactive); with HCT-116, > 100 µM (inactive). Besides, the GI50 with SK-MEL-28 is > 100 µM (inactive); with HT-29 it was > 100 µM (inactive); with OVCAR-5, > 100 µM (inactive); in the assay on SNB-75 it was 17.5 µM (inactive); in the assay on TK-10, > 100 µM (inactive); with PC-3, > 100 µM (inactive).

In the case of `CN(C)S(=O)(=O)n1cnc(CO)c1`, the GI50 in the assay on HOP-62, in the assay on A498, in the assay with NCI-H522, with NCI-H23, in the assay on SW-620 and in the assay on MDA-MB-435 was > 100 µM (inactive) in each case. Besides, the GI50 in the assay on UO-31, in the assay with K562, in the assay on EKVX, in the assay on MDA-N, in the assay with HCT-116 and in the assay on SK-MEL-28 was > 100 µM (inactive) throughout. For the same molecule, the GI50 with OVCAR-5, in the assay with SNB-75, in the assay on TK-10 and in the assay with PC-3 was > 100 µM (inactive) throughout.

Take `CC(C)(C)C(=O)N1CCN(C=O)C1=S`: the GI50 with HOP-62 is > 100 µM (inactive); in the assay on A498, 18.7 µM (inactive); with UACC-62, 32.1 µM (inactive); with NCI-H522 it was 26.8 µM (inactive); with DU-145, 33.5 µM (inactive); with NCI-H23, 77.3 µM (inactive). For the same molecule, the GI50 in the assay with SW-620 was 44.9 µM (inactive); in the assay with MDA-MB-435, 35.9 µM (inactive); in the assay on UO-31, 0.0693 µM (active); in the assay with K562, 35.2 µM (inactive); in the assay with EKVX it was > 100 µM (inactive); with HCT-116, > 100 µM (inactive). The GI50 in the assay with SK-MEL-28 is 50.4 µM (inactive); with HT-29, > 100 µM (inactive); with OVCAR-5 it was > 100 µM (inactive); in the assay with SNB-75, 30.1 µM (inactive); in the assay with TK-10, 92 µM (inactive); in the assay on PC-3, > 100 µM (inactive).

Consider `S=c1[nH]nc(COc2ccc3c(c2)CCCC3)n1/N=C/c1ccc(Cl)cc1`, for which the GI50 was 15.9 µM (inactive) in the assay with HOP-62; 19.1 µM (inactive) with UACC-62; 14.1 µM (inactive) with NCI-H522; 15.5 µM (inactive) in the assay on DU-145; 19.5 µM (inactive) with NCI-H23; 17.4 µM (inactive) with SW-620. Moreover, the GI50 in the assay on MDA-MB-435 was 19.3 µM (inactive); in the assay on UO-31, 17.1 µM (inactive); in the assay on K562, 17.3 µM (inactive); in the assay on EKVX, 19.1 µM (inactive); in the assay with MDA-N it was 17.7 µM (inactive); in the assay with HCT-116, 14.5 µM (inactive). For the same molecule, the GI50 in the assay with SK-MEL-28 is 18.2 µM (inactive); with OVCAR-5 it was 17.9 µM (inactive); with TK-10 it was 20.1 µM (inactive); in the assay with PC-3, 14.9 µM (inactive).

Take `CCP(=O)(CC)C(Cl)(Cl)C(=O)NC`: the GI50 with HOP-62, in the assay on NCI-H522, with DU-145, in the assay with NCI-H23, in the assay with SW-620 and in the assay on MDA-MB-435 was > 100 µM (inactive) throughout. For the same molecule, the GI50 in the assay on UO-31, with K562, in the assay on MDA-N, with HCT-116, in the assay with SK-MEL-28 and with HT-29 was > 100 µM (inactive) each time. The GI50 in the assay on OVCAR-5, in the assay on SNB-75, in the assay with TK-10 and with PC-3 was > 100 µM (inactive) in each case.

On to `CCOC(=O)C(NC(=O)c1ccccc1)(Nc1ccc(S(=O)(=O)Nc2cc(C)on2)cc1)C(F)(F)F` (configuration not stated), for which the GI50 with HOP-62 is > 100 µM (inactive); in the assay on UACC-62, > 100 µM (inactive); in the assay on NCI-H522, > 100 µM (inactive); with DU-145, > 100 µM (inactive); in the assay on NCI-H23, > 10 µM (inactive); with SW-620 it was > 100 µM (inactive). For the same molecule, the GI50 in the assay on MDA-MB-435, in the assay with UO-31, in the assay with K562, in the assay with EKVX, in the assay on MDA-N and with HCT-116 was > 100 µM (inactive) throughout. For the same molecule, the GI50 with SK-MEL-28 was > 100 µM (inactive); in the assay on HT-29, > 100 µM (inactive); in the assay with OVCAR-5, > 100 µM (inactive); in the assay with SNB-75, > 100 µM (inactive); in the assay on TK-10, 56.1 µM (inactive); in the assay with PC-3 it was > 100 µM (inactive).

Turning to `O=C(/C=C/c1ccc2c(c1)OCO2)NCCc1ccco1`, the GI50 in the assay on HOP-62 was 83.8 µM (inactive); with UACC-62, 44.2 µM (inactive); with NCI-H522 it was 37.9 µM (inactive); with DU-145 it was > 100 µM (inactive); in the assay with NCI-H23, > 100 µM (inactive); in the assay on SW-620, > 100 µM (inactive). Besides, the GI50 in the assay on MDA-MB-435 is 64.7 µM (inactive); in the assay on UO-31 it was 41 µM (inactive); with K562, 39.7 µM (inactive); in the assay with EKVX, 73.3 µM (inactive); in the assay on MDA-N, > 100 µM (inactive); in the assay on HCT-116 it was 68.9 µM (inactive). Further, the GI50 in the assay on SK-MEL-28 is > 100 µM (inactive); in the assay with HT-29, > 100 µM (inactive); with OVCAR-5 it was > 100 µM (inactive); in the assay with SNB-75 it was > 100 µM (inactive); in the assay with TK-10 it was 65.8 µM (inactive); with PC-3 it was 50.8 µM (inactive).

With `O=C(/N=N/c1ccc(Br)cc1)NNc1ccc(Br)cc1`, the GI50 with HOP-62 is 16.4 µM (inactive); in the assay on A498, 44 µM (inactive); in the assay on UACC-62, 14.1 µM (inactive); in the assay on NCI-H522, 16.2 µM (inactive); in the assay on DU-145, 40.8 µM (inactive); in the assay on NCI-H23 it was 22.5 µM (inactive). Further, the GI50 in the assay with MDA-MB-435 is 19.8 µM (inactive); with UO-31 it was 22.9 µM (inactive); in the assay with K562, 10.5 µM (inactive); with MDA-N, 24.2 µM (inactive); in the assay on HCT-116, 17.5 µM (inactive); with SK-MEL-28 it was 26.3 µM (inactive). In addition, the GI50 in the assay on HT-29 was 17.4 µM (inactive); in the assay on OVCAR-5 it was 23.3 µM (inactive); with SNB-75, 29.4 µM (inactive); in the assay with PC-3, 15.5 µM (inactive).

As to `C/C(=C/C(=O)N(C)c1ccccc1Cl)O[Si](C(C)C)(C(C)C)C(C)C`, the GI50 in the assay with HOP-62 was 26.8 µM (inactive); in the assay on A498, > 10 µM (inactive); in the assay with NCI-H522, 15.4 µM (inactive); with DU-145, 32.1 µM (inactive); with NCI-H23, 24.7 µM (inactive); in the assay with SW-620, 19.4 µM (inactive). Besides, the GI50 in the assay with MDA-MB-435 is 32.1 µM (inactive); in the assay on UO-31, 19.9 µM (inactive); with EKVX, 26.4 µM (inactive); in the assay on MDA-N, 21.3 µM (inactive); in the assay on HCT-116, 17.8 µM (inactive); with SK-MEL-28 it was 32.8 µM (inactive). Further, the GI50 in the assay on HT-29 was 17.6 µM (inactive); in the assay with OVCAR-5 it was 18.2 µM (inactive); in the assay with SNB-75, 29.4 µM (inactive); in the assay on TK-10, 33.5 µM (inactive).

Consider `O=c1[nH]nc(NNc2ccccc2)c2nnn(C3CCCCC3)c12`, for which the GI50 in the assay with HOP-62, in the assay on DU-145, in the assay on NCI-H23, in the assay on MDA-MB-435, with UO-31 and in the assay with K562 was > 100 µM (inactive) throughout. The GI50 with EKVX, with MDA-N, with HCT-116, in the assay on SK-MEL-28, in the assay on HT-29 and in the assay on OVCAR-5 was > 100 µM (inactive) in each case. In addition, the GI50 with TK-10 and with PC-3 was > 100 µM (inactive) in each case.

With `CS(=O)(=O)OCC(CCl)(CCl)CCl`, the GI50 with A498, with NCI-H522, in the assay with DU-145, with NCI-H23, with SW-620 and in the assay on MDA-MB-435 was > 100 µM (inactive) each time. Further, the GI50 with UO-31, in the assay with K562, in the assay on MDA-N, in the assay on HCT-116, in the assay with SK-MEL-28 and with HT-29 was > 100 µM (inactive) throughout. Also, the GI50 in the assay with SNB-75, in the assay on TK-10 and in the assay on PC-3 was > 100 µM (inactive) in each case.

In the case of `O=c1c(-c2ccccc2)c(SCCCN2CCN(c3cccc(Cl)c3)CC2)n(-c2ccccc2)c(=S)n1-c1ccccc1`, the GI50 with HOP-62, in the assay with A498, with UACC-62, in the assay on NCI-H522, in the assay on DU-145 and with NCI-H23 was > 100 µM (inactive) each time. Further, the GI50 in the assay on SW-620 was > 100 µM (inactive); in the assay on MDA-MB-435 it was 16.8 µM (inactive); with K562, > 100 µM (inactive); with EKVX, > 100 µM (inactive); in the assay on SK-MEL-28 it was > 100 µM (inactive); in the assay on HT-29 it was 80.9 µM (inactive). Moreover, the GI50 in the assay with OVCAR-5, in the assay with SNB-75, in the assay with TK-10 and in the assay with PC-3 was > 100 µM (inactive) throughout.
